`CC(C)(C)OC(=O)N1C(COc2noc3ccc(Cl)cc23)COC1(C)C` (centres undefined) returned a melting point of 117 to 118 °C.
For the molecule `COc1ccccc1Cc1cccc(-c2ncc3c(n2)CC(C)(C)CC3)n1`, the melting point was in the range of 251 to 252 °C.
In turn, `CCOC(=O)c1cn2c3c(ccc(Cl)c3c1=O)OCC2C` (centres undefined) yielded a melting point of 205 to 206 °C.
In turn, `CCOc1nn(-c2ccc(C(F)(F)F)cn2)cc1CCOc1ccc(CCC(=O)O)c(OC)c1` registered a melting point of 147 to 148 °C.
Molecule `O=C1CCC(c2ccc(O)cc2)N1` (centres undefined) returned a melting point of 183 °C.
The molecule `CCc1cc(C#N)ccc1Nc1c(N[C@H](C)C(C)(C)C)c(=O)c1=O` returned a melting point of 235 to 237 °C.
`N#CC(=NNc1c(Cl)cc(C(F)(F)F)cc1Cl)c1ccc(C#N)cc1` displayed a melting point of 186 to 187 °C.
In turn, `Nc1ncc2c(n1)-c1cccnc1CC2` showed a melting point of 220 to 226 °C.
`O=Cc1cc2cc(O)c(Cl)c(Cl)c2s1` gave a melting point of 197 to 198 °C.
To `Cc1ncc(O)c(=O)[nH]1` belongs greater than 300 °C; to `O=C(NCCc1ccc(O)cc1)c1cccnc1`, 179 to 181 °C; to `O=C1CCC(N2Cc3c(OCc4ccc(CN5CCN(C(=O)C(F)(F)F)CC5)cc4)cccc3C2=O)C(=O)N1` (centres undefined), 125 to 127 °C.
To `NC(=O)N(O)Cc1ccc(Br)cc1` belongs 157 to 159 °C.
To `CN1CCC(CNc2ncc3ncnc(Nc4ccc(F)c(Cl)c4)c3n2)CC1` belongs 198 to 201 °C; to `CC(=O)OCCOC(=O)C1=C(C)Nc2nc(N3CCOCC3)nc(N3CCOCC3)c2C1c1cccnc1` (centres undefined), 170 °C; to `CC(=O)OCC1=C(C(=O)O)N2C(=O)C(NC(=O)Cn3ccnc3S(C)(=O)=O)C2SC1` (centres undefined), 223 °C.
In the case of `N#Cc1ccccc1Oc1ccc(-c2cn(C3CCOCC3)c3ncnc(N)c23)cc1`, the melting point is 125 °C.
The molecule `C1=c2ccn3c2=C(CC1)c1nncn1-c1ccccc1-3` gave a melting point of 177 to 178 °C.
As for `CC(C)(C)c1cc(SCCOCC(=O)O)cc(C(C)(C)C)c1O`, the figure is 86 °C; as for `CC(C)c1cccc(C(C)C)c1NC(=O)CNC(c1ccccn1)c1ccccn1`, 134 to 135 °C.
In the case of `CC(O)CN1CCNC1=S` (centres undefined), the melting point fell in the range of 101 to 102 °C.
Molecule `O=Cc1nn(-c2ccccc2)c2c1CCCC2` gave a melting point of 60 °C.
In turn, `CN1C(=O)c2cscc2N(Cc2ccccc2)c2ccccc21` came in with a melting point of 152 to 153 °C.
With `CC(C)(C)OC(=O)NC1CCN(CC(F)(F)F)CC1`, the melting point lay in the range of 99.2 to 99.8 °C.
The molecule `COc1c(Cl)ccc(-c2nc(N)c(C(C)OC)c(C(=O)O)n2)c1F` (centres undefined) gave a melting point of 165 to 167 °C.
`CC(C)CNC(=O)C(C)(C)c1ccc(-c2cccn2C)cc1` came in with a melting point of 59 to 60 °C.
The molecule `CCOC(=O)c1[nH]c2c(O)cccc2c1C` came in with a melting point of 187 to 190 °C.
Molecule `CCOC(=O)c1ccc(C#CCOc2cc3c(cc2C=O)C(C)(C)CCC3(C)C)cc1` returned a melting point of 114 to 115 °C.
With `O=C1CCN(c2ccc(C=C3SC(=O)NC3=O)cc2Br)CC1`, the melting point is greater than 210 °C.
`O=P(c1ccccc1)(c1ccccc1)c1cc(P(=O)(c2ccccc2)c2ccccc2)ncn1`: the melting point was 213 to 215 °C.
`N#Cc1ccc(CC2CC3CCC(C2)N3c2ccccc2)c2ccccc12` (centres undefined) gave a melting point of 103 to 104 °C.
`O=[N+]([O-])c1cc(C(F)(F)F)ccc1C(O)c1cnoc1C1CC1` (centres undefined) displayed a melting point of 76 °C.
In turn, `O=Cc1c(OCc2ccccc2)ccc2ccccc12` came in with a melting point of 120 to 121 °C.
`CCOC(=O)c1ccc(-c2c[nH]c(-c3ccc4c(c3)C(C)(C)CCC4(C)C)n2)cc1`: the melting point was in the range of 186 to 188 °C.
Take `COCCOC(=O)C(=O)Nc1nc(-c2ccccc2)cs1`: the melting point fell in the range of 118 to 120 °C.
`CN1C(=S)N(c2ccc(C#N)c(C(F)(F)F)c2)C(=N)C1(C)C` returned a melting point of 173 to 174 °C.
To `O=C(NCCCCOc1ccc(-n2ccnc2)cc1)c1ccc(F)cc1` belongs 122 to 123 °C; to `O=[N+]([O-])c1cccc(Oc2cccc(-c3nnc(Nc4ccc(Cl)c(Cl)c4)s3)c2)c1`, 210 to 212 °C; to `CCN1C(=O)C(C)(C)C(=O)N(C)c2cc(CN(CCn3ccc4oc(C)cc4c3=O)Cc3ccncc3)ccc21`, 143 to 145 °C.
In turn, `CCCCN(C)CCOc1ccc(Cn2c(-c3ccc(O)cc3)c(C)c3cc(O)ccc32)cc1` came in with a melting point of 102 to 107 °C.
`CN(C(=S)Nc1ccc(NNC=O)cc1)c1ccccc1` showed a melting point of 137 to 139 °C.
`COc1ccc(Cc2c(-c3ccc(OC(F)F)c(OC4CC4)c3)[nH]c3cn[nH]c(=O)c23)cn1` yielded a melting point of 220 to 221 °C.
For the molecule `Cc1c(C=O)c2c(c(C)c1NC(=O)CC(C)(C)C)C(c1ccc(C(C)C)cc1)CS2` (centres undefined), the melting point fell in the range of 134 to 140 °C.
Consider `CC#CC(C)(C)NC(=O)C(CC)Oc1ccc2ncc(Cl)cc2c1` (centres undefined), for which the melting point is 105 to 107 °C.
On to `c1ccc(-c2nc3ccc(NCCCN4CCC(OC(c5ccccc5)c5ccccc5)CC4)nn3n2)cc1`, for which the melting point fell in the range of 170 to 172 °C.
`CCS(=O)(=O)CCOc1cc(CCCOc2nn(Cc3ccccc3)cc2CC(=O)O)n(Cc2ccc(Cl)cc2Cl)n1`: the melting point is 100 to 101 °C.
`CC(C)c1cc(-c2ccccn2)c(-c2ccc(F)cc2)n1CCC=O` showed a melting point of 120 to 122 °C.
`O=C(O)C(=O)CC(=O)c1cccn1Cc1cccc(F)c1F` showed a melting point of 154 to 156 °C.
As for `COC(=O)CCc1ccc(OCCN(C)c2nc3ccccc3o2)cc1`, the melting point lay in the range of 51 to 52 °C.
Regarding `O=C(O)COc1c(Cl)cc(F)cc1Cl`, the melting point lay within 155 to 158 °C.
As for `CN1C(=O)CCC1(O)c1ccc(Cl)c(S(=O)(=O)NCCc2ccccc2)c1` (centres undefined), the figure is 149 to 153 °C.
The molecule `CC(=Cc1ccccc1)S(=O)(=O)NC(=O)N1CCCCC1` yielded a melting point of 159 to 161 °C.
Molecule `C=CCOC(=O)c1ccc(N=C(SC)c2ccc(OC)c(C34CC5CC(CC(C5)C3)C4)c2)cc1` displayed a melting point of 50 to 53 °C.
The molecule `CCN(CC)CC1CCCCN1CCNC(=O)N1c2ccccc2NC(=O)c2csc(C)c21` (centres undefined) had a melting point of 132 to 133 °C.
In the case of `CN1CCC(=C2c3ccccc3CCn3ncnc32)CC1`, the melting point stood at 127 °C.
As for `CCCCCCCCCCCCCN1CC(=O)C(C#N)=C1N`, the figure is 214 to 215 °C; as for `CC(=O)OCc1c(Br)cccc1N1Cc2cc(C(C)(C)C)sc2C1=O`, 172 to 173 °C; as for `CCOCC1COc2cc(C(=O)O)c(N)cc2O1` (centres undefined), 124 to 130 °C.
Regarding `CC1(C)Cc2cccc(Oc3ccc(NC(=O)NC(=O)c4c(F)cccc4F)cc3Cl)c2O1`, the melting point is 171 °C.
As for `NC(=O)c1[nH]c2ccc(Cl)cc2c1S(=O)(=O)c1ccccc1Cl`, the melting point is 267 °C.
`CCCCC[C@@H](CNC(=O)Nc1c(OC(C)C)c(C)nn1C)c1cccc2c1OCO2` had a melting point of 123 to 124 °C.
For the molecule `C#Cc1cn(C2CC(O)C(CO)O2)c(=O)[nH]c1=O` (centres undefined), the melting point came to 175 °C.
As for `CC(C)c1ccccc1NC#N`, the figure is 75 to 77 °C.
For `Nc1nc(-c2ccco2)c(C(=O)C2CCOCC2)s1`, the melting point is 184 to 188 °C.

These data come from a melting point compilation (Tetko et al.; mined from patent text by program, amines drawn as free bases though some values may be those of a salt).
